Laboratory results reported in PMC6925260 (Nature Communications, 2019).
Changes are numbered by the printed parent chain. Read-outs that look alike come from different tables or passages of the source.

Assays:
[1] = biological target: T1, PPARγC313A,Q322C-BTFA LBD / MED1 peptide (Homo sapiens, UniProt P37231, C313A/Q322C); assay: Fluorescence anisotropy, MED1 peptide to PPARγC313A,Q322C-BTFA LBD; type: binding; conditions: Supp. Table 2
T1 construct: 6× His tag with TEV recognition site (N, cleaved yes); made in house; host or cells: E. coli BL21 (DE3) gold
Procedure: (§1) These samples were then plated as usual.

[2] = biological target: T2, K347A PPARγ LBD / SMRT peptide (Homo sapiens, UniProt P37231, K347A); assay: Fluorescence anisotropy, SMRT peptide to K347A PPARγ LBD; type: binding
T2 construct: 6× His tag with TEV recognition site (N, cleaved yes); made in house; host or cells: E. coli BL21 (DE3) gold
T2 sequence (P37231 230-505 K347A): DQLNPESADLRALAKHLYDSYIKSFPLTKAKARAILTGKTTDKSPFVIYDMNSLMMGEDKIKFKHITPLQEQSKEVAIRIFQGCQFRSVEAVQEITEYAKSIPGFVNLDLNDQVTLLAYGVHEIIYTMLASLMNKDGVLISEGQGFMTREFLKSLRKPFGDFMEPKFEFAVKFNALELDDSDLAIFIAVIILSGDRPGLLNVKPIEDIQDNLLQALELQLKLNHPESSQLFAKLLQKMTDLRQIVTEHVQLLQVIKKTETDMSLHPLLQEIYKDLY
Procedure: as §1

[3] = biological target: T3, N340A PPARγ LBD / SMRT peptide (Homo sapiens, UniProt P37231, N340A); assay: Fluorescence anisotropy, SMRT peptide to N340A PPARγ LBD; type: binding
T3 construct: 6× His tag with TEV recognition site (N, cleaved yes); made in house; host or cells: E. coli BL21 (DE3) gold
T3 sequence (P37231 230-505 N340A): T2 sequence (P37231 230-505 K347A) with N111A, A118K
Procedure: as §1

[4] = biological target: T4, PPARγ LBD (wt) / SMRT CoRNR box peptide (Homo sapiens, UniProt P37231); assay: Fluorescence anisotropy, SMRT peptide to wt PPARγ LBD (alone or ligand bound); type: binding
T4 construct: 6× His tag with TEV recognition site (N, cleaved yes); made in house; host or cells: E. coli BL21 (DE3) gold
T4 sequence (P37231 230-505): T2 sequence (P37231 230-505 K347A) with A118K
Procedure: as §1

[5] = biological target: T5, PPARγC313A,Q322C-BTFA LBD / NCoR peptide (Homo sapiens, UniProt P37231, C313A/Q322C); assay: Fluorescence anisotropy, NCoR peptide to PPARγC313A,Q322C-BTFA LBD; type: binding; conditions: Supp. Table 2
T5 construct: 6× His tag with TEV recognition site (N, cleaved yes); made in house; host or cells: E. coli BL21 (DE3) gold
T5 sequence (P37231 230-505 C313A/Q322C): T2 sequence (P37231 230-505 K347A) with C84A, Q93C, A118K
Procedure: as §1

[6] = biological target: T6, K347A PPARγ LBD / NCoR peptide (Homo sapiens, UniProt P37231, K347A); assay: Fluorescence anisotropy, NCoR peptide to K347A PPARγ LBD; type: binding; conditions: read-out: NCoR dissociation constant average, K347A; Supp. Fig. 11
T6 construct: 6× His tag with TEV recognition site (N, cleaved yes); made in house; host or cells: E. coli BL21 (DE3) gold
Procedure: as §1

[7] = biological target: PPARγ LBD (wt) / CBP peptide (Homo sapiens, UniProt P37231); assay: Fluorescence anisotropy, CBP peptide to wt PPARγ LBD
PPARg LBD N340A = assay: Supplementary Figure 11: fluorescence anisotropy dissociation constants, N340A (peptide not given)
[8] = biological target: T7, PPARγ LBD (wt) / MED1 LxxLL peptide (Homo sapiens, UniProt P37231); assay: Fluorescence anisotropy, MED1 peptide to wt PPARγ LBD (alone or ligand bound); type: binding
T7 construct: 6× His tag with TEV recognition site (N, cleaved yes); made in house; host or cells: E. coli BL21 (DE3) gold
T7 sequence (P37231 230-505): T2 sequence (P37231 230-505 K347A) with A118K
Procedure: as §1

K347A PPARg LBD = assay: Supplementary Figure 11: fluorescence anisotropy dissociation constants, K347A (peptide not given); type: binding
PPARg LBD DH12 = assay: Supplementary Figure 11: fluorescence anisotropy dissociation constants, DH12 (peptide not given); type: binding
[9] = biological target: T8, K329A PPARγ LBD / SMRT peptide (Homo sapiens, UniProt P37231, K329A); assay: Fluorescence anisotropy, SMRT peptide to K329A PPARγ LBD; type: binding
T8 construct: 6× His tag with TEV recognition site (N, cleaved yes); made in house; host or cells: E. coli BL21 (DE3) gold
T8 sequence (P37231 230-505 K329A): T2 sequence (P37231 230-505 K347A) with K100A, A118K
Procedure: as §1

SMILES: O=C(Nc1ccccc1)c1cc([N+](=O)[O-])ccc1Cl [GW9662]
- MED1 fold change (labeled/wt), PPARγC313A,Q322C-BTFA [1]: 2.3
- Kd ([1]; read-out: MED1 Kd, PPARγC313A,Q322C-BTFA, covalent ligands T0070907, GW9662 expected to be apo-like): 9.75 µM
- SMRT Kd, wt vs K347A mean difference ± SE ([2]; Supp. Fig. 12): 64 ± 631
- Kd ([2]; Supp. Fig. 12, read-out: SMRT dissociation constant average, K347A): 570 nM
- Kd ([2]; run SMRT FP 4 5 18, read-out: SMRT dissociation constant, K347A): 527 nM
- Kd ([2]; run SMRT FP 4 6 18, read-out: SMRT dissociation constant, K347A): 638 nM
- Kd ([2]; run SMRT FP 4 10 18, read-out: SMRT dissociation constant, K347A): 546 nM
- SMRT Kd, wt vs N340A mean difference ± SE ([3]; Supp. Fig. 12): -323 ±631
- Kd ([3]; Supp. Fig. 12, read-out: SMRT dissociation constant average, N340A): 957 nM
- Kd ([3]; run SMRT FP 4 5 18, read-out: SMRT dissociation constant, N340A): 855 nM
- Kd ([3]; run SMRT FP 4 6 18, read-out: SMRT dissociation constant, N340A): 1200 nM
- Kd ([3]; run SMRT FP 4 10 18, read-out: SMRT dissociation constant, N340A): 811 nM
- Kd ([4]; Supp. Fig. 12, read-out: SMRT dissociation constant average, wt): 634 nM
- SMRT Kd mean difference ±SE, Apo vs ligand ([4]; Supp. Table 4, wt, 9 df): 923 ±178
- Kd ([4]; run SMRT FP 4 5 18, read-out: SMRT dissociation constant, WT): 445 nM
- Kd ([4]; run SMRT FP 4 6 18, read-out: SMRT dissociation constant, WT): 482 nM
- Kd ([4]; run SMRT FP 4 10 18, read-out: SMRT dissociation constant, WT): 976 nM
- effect on affinity/recruitment of SMRT CoRNR peptide ([4]; versus apo): increase affinity
- NCoR fold change (labeled/wt), PPARγC313A,Q322C-BTFA [5]: 1.3
- Kd ([5]; read-out: NCoR Kd, PPARγC313A,Q322C-BTFA, covalent ligands T0070907, GW9662 expected to be apo-like): 348 nM
- Kd [6]: 590 nM
- Kd ([7]; read-out: CBP Kd, ligand-bound, run 1): 4.7 µM
- Kd ([7]; read-out: CBP Kd, ligand-bound, run 2): 3.35 µM
- Kd (PPARg LBD N340A; read-out: dissociation constant, Average N340A values, average of the listed data sets): 485 nM
- Kd (PPARg LBD N340A; read-out: dissociation constant, data set FP 3 15 18 Inverse agonism part 2): 342 nM
- Kd (PPARg LBD N340A; read-out: dissociation constant, data set PPARg LBD N340A 12 11 17): 628 nM
- effect on coactivator LxxLL box peptide affinity ([8]; Supp. Table 9 summary, comparator apo): no effect
- Kd ([8]; read-out: MED1 Kd, wt, Supp. Table 2, wt values not from the same experiment as PPARγC313A,Q322C-BTFA (first wt column)): 4.22 µM
- Kd ([8]; read-out: MED1 WT Kd, Supp. Table 1, wt PPARγ LBD, FITC peptide 50 nM, fluorescence anisotropy, pH 7.4, 2 h room temperature): 4.9 µM
- Kd (K347A PPARg LBD; data set 2 28 18 FP inverse agonism, read-out: dissociation constant): 692 nM
- Kd (K347A PPARg LBD; data set FP K329A K347A 3 20 18, read-out: dissociation constant): 488 nM
- Kd (PPARg LBD DH12; data set 6-23-17, read-out: dissociation constant): 66.2 nM
- Kd (PPARg LBD DH12; data set 6-26-17 FP, read-out: dissociation constant): 155 nM
- Kd (PPARg LBD DH12; data set FP 3 15 18 Inverse agonism part 2, read-out: dissociation constant): 27.1 nM
- Kd (PPARg LBD DH12; data set PPARg LBD DH12 9-26-17, read-out: dissociation constant): 145 nM
- Kd (PPARg LBD DH12; data set PPARg LBD DH12 10-24-17, read-out: dissociation constant): 73.1 nM
- SMRT Kd, wt vs K329A mean difference ± SE ([9]; Supp. Fig. 12): -1916±631
- Kd ([9]; Supp. Fig. 12, read-out: SMRT dissociation constant average, K329A): 2550 nM
- Kd ([9]; run SMRT FP 4 5 18, read-out: SMRT dissociation constant, K329A): 1330 nM
- Kd ([9]; run SMRT FP 4 6 18, read-out: SMRT dissociation constant, K329A): 1850 nM
- Kd ([9]; run SMRT FP 4 10 18, T0070907 value 5903 excluded by the authors, read-out: SMRT dissociation constant, K329A): 4470 nM
